Here are results for 2 compounds from BindingDB's records for doi:10.1021/jm00046a002 (Upjohn, 1994).

In test [1] the target is T1, Dimer of Gag-Pol polyprotein [489-587] (Human immunodeficiency virus 1, UniProt P12497).
T1 construct: 489-587
The experiment in a line: Protease Inhibition Assay. An excerpt:
(§1) HIV-1 protease was purified and refolded from E. coli inclusion bodies. The substrate used spans the p17-p24 processing site (R-V-S-Q-N-Y-P-I-V-Q-N-K) and was derivatized with biotin and fluorescein isothiocyanate (FITC) at the amino and carboxy termini. In the presence of HIV-l protease, the substrate is rapidly cleaved into two parts. The biotinylated amino terminal fragment binds to the avidin beads while the FITC-containing carboxy1 terminal fragment is removed through the membrane. […] The bound fluorescence is obtained by processing on an IDEXX Screen Machine. Determination of Ki values with this assay requires analysis under conditions in which substrate concentration resides substantially below Km and the inhibitor concentrations greatly exceeds the Ki value and the enzyme concentration.

Test [2] concerns the target T2, Dimer of Gag-Pol polyprotein [514-612] (Human immunodeficiency virus 2, UniProt P04584).
T2 construct: 514-612
T2 sequence (P04584 whole entry): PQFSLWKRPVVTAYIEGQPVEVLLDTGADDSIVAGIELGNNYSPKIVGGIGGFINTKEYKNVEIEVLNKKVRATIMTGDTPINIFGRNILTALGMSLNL
The experiment in a line: Protease Inhibition Assay.
Source text: as §1

What is called Ki is a measure of affinity in units of concentration, obtained from inhibition or displacement. Low readings indicate a stronger hold on the target, high ones a looser hold on the target. In test [1], `O=c1oc2c(c(O)c1C(c1ccccc1)C1CC1)CCCCCC2` (configuration not stated) returned a Ki of 15 nM.

In test [2], `CCC(Cc1ccccc1)c1cc(O)c(C(CC)c2ccccc2)c(=O)o1` (configuration not stated) [4-hydroxy-6-(1-phenylbutan-2-yl)-3-(1-phenylpropyl)-2H-pyran-2-one] gave a Ki of 32 nM.
